Measured values: patent publication US7488738B2, “Aminophenoxyacetic acid derivatives and pharmaceutical composition containing thereof” (Asubio Pharma Co., Ltd., priority 1998, dated 2009)

What was measured:
[1] = tested on: calbindin D28Kd; assay: Calbindin D28Kd inducing effect (western blot); type: cell-based, rats of Wister strain; conditions: fetal rat cerebral cortex cells, none-treated control = 100
Procedure: Biological Test 2: Calbindin D28Kd Inducing Effect
In accordance with the method of M. P. Mattoson [M. P. Mattoson, Brain Res. Rev., 13, 179 (1988)], brain of 18-days fetus rats of Wister strain were taken out. Then, cells of cerebral cortex (5,500 cells/m^2) were seeded on poly-L-lysine coated 6 wells plate (Falcon) (3.5 mm, Sumilon) and incubated for 7 days.
Test compounds were added on culture day 5, and after 7 days of incubation, the protein was extracted with homogenized buffer-solution [containing 20 mM of Tris-HCl (pH=7.4), 1 mM of EDTA, and 0.1 mM of phenylmethylsulfonyl fluoride].
The effect of the test compounds was determined by the western blot technique using polyclonal anti calbindine D28K (Swant Co., Ltd.) as antibody.
In the table, the amount of induced calbindine D28Kd of the control group (none-treated group) was indicated as 100 percents.

[2] = tested on: rats of slc:Wister strain; assay: Cerebral edema suppressing effect (brain injury by metal screw); type: in vivo; conditions: rat, water content of injured hemisphere 6 days after operation
Procedure: Biological Test 3: Cerebral Edema Suppressing Effect 8-week-old rats of slc:Wister strain were used. Rats were anesthetized by intraperitoneal administration of 50 mg/kg of Nembutal (Trade Name), and then, fixed on brain fixactor. The sterile metal screw (3.75 mm in length/1.0 mm in diameter/0.75 mm in length of screw thread) was plugged in the 1.5 mm right and 0.8 mm rear side of the bregma to press frontparietal cortex organ to cause brain injury. 6 days after the operation, the whole brain was taken out and right cerebral hemisphere (injured side) was isolated. After measurement of the wet weight of the cerebral hemisphere, it was dried at 110° C. for 24 hours on aluminum foil. The dry weight of the cerebral hemisphere was measured, and the water content was calculated by using the following formula: Water content (%)=[(wet weight of hemisphere−dry weight of hemisphere)/wet weight of hemisphere]×100 The test compounds were intravenously administered just after the operation via tail vein of the rats.

[3] = tested on: cells of cerebral cortex; assay: Cytoprotective effect against glutamate induced cell death (MTT); type: cell-based, rats of Wister strain; conditions: compound 1 μM added 24 h before 1 mM glutamate, fetal rat cerebral cortex cells, control group = 100%; for viability at 1 µM: read-out: Survival Rate (%) (Compound: 1 μM)
Procedure: Biological Test 1: Cytoprotective Effect Against Glutamate Induced Cell Death
In accordance with the method of M. P. Mattoson [M. P. Mattoson, Brain Res. Rev., 13, 179 (1988)], brain of 18-days fetus rats of Wister strain were taken out. Then, cells of cerebral cortex (4×10^5 cells/ml) were seeded on poly-L-lysine coated 96 wells flat bottom plate (Sumitomo Bakelite Co., Ltd.) in concentration of 4×10^4 cells/each well. After 48 hours of incubation, 1 μM of test compounds were added, then after further 24 hours, 1 mM of glutamate were further added for inducing the cell injury. 12 hours after adding glutamate, MTT [3-(4,5-dimethylthiazol)-2,5-diphenyltetrazolium bromide] was added and incubated for 6 hours.
After incubation, 200 μl of dimethy sulfoxide was added to each wells, and the amounts of reduced MTT were calorimetrically analyzed by Micro ELISA Reader using 570 nm of main-wavelength and 650 nm of sub-wavelength.
The effect of the test compounds was determined as the survival rate of living cells (%) according to the following equation: Survival rate of living cells (%)=[(test compound group−glutamate treated group)÷(control group−glutamate treated group)]×100
That is, the survival rate of living cells after incubation of the control group was converted to 100%, and the survival data of living cells of the tested compounds was shown in Table II.

[4] = 3 mg/kg intravenously just after operation
[5] = 1 mg/kg intravenously just after operation

SMILES	Cerebral edema suppressing rate (%) [2, 4] [%]	Survival Rate (%) (Compound: 1 μM) [3]	viability at 1 µM [3] [%]	further results
Cc1cc(OCC(=O)N(C)C2CCN(CC(=O)Nc3ccccc3)CC2)c(C)c(C)c1N [Compound 29, 2-(4-Amino-2,3,5-trimethylphenoxy)-N-[1-(2-anilino-2-oxyethyl)-4-piperidinyl]-N-methylacetamide]	30.9	–	–	Amount of induced Calbindine D28Kd (% vs. control) (Compound: 1 μM) [1]: 122 % vs. control
Cc1c(C)c(NCC(=O)N(C)C2CCN(CCc3ccccc3)CC2)c(C)c(C)c1N [Compound 40, 2-(4-Amino-2,3,5,6-tetramethylanilino)-N-methyl-N-[1-(2-phenethyl)-4-piperidinyl]acetamide]	20.5	108	–	Amount of induced Calbindine D28Kd (% vs. control) (Compound: 1 μM) [1]: 150 % vs. control; Cerebral edema suppressing rate (%) [2, 5]: 31.1%
Cc1cc(OC(C)(C)C(=O)N(C)C2CCN(CC(=O)Nc3ccccc3)CC2)c(C)c(C)c1N [Compound 42, 2-(4-Amino-2,3,5-trimethylphenoxy)-2-methyl-N-[1-(2-anilino-2-oxyethyl)-4-piperidinyl]-N-methylpropamide]	31.0	131	–	Cerebral edema suppressing rate (%) [2, 5]: 24.5%
Cc1cc(OCC(=O)NC2CCN(CC(=O)NC3(c4ccccc4)CC3)CC2)c(C)c(C)c1N [Compound 104, 2-(4-Amino-2,3,5-trimethylphenoxy)-N-[1-(2-(1-phenylcyclopropyl)amino-2-oxyethyl)-4-piperidinyl]acetamide]	18.9	117	–	–
Cc1cc(OCC(=O)N(C)C2CCN(CC(=O)N(C)c3ccccc3)CC2)c(C)c(C)c1N [Compound 105, 2-(4-Amino-2,3,5-trimethylphenoxy)-N-methyl-N-[1-(2-(N-methylanilino)-2-oxyethyl)-4-piperidinyl]acetamide]	23.2	86	–	–
Cc1cc(OCC(=O)NC2CCN(CC(=O)N(C)c3ccccc3)CC2)c(C)c(C)c1N [Compound 108]	20.3	–	–	–
Cc1c(C)c(NCC(=O)N(C)C2CCN(CC(C(=O)O)c3ccccc3)CC2)c(C)c(C)c1N (stereo not drawn) [Compound 109, 3{4-[[2-(4-Amino-2,3,5,6-tetramethylanilino)-acetyl](methyl)amino]-1-piperidino}-2-phenylpropionic acid]	24.7	76	–	–
Cc1c(C)c(NCC(=O)N(C)C2CCN(CC(=O)c3ccccc3)CC2)c(C)c(C)c1N [Compound 111, 2-(4-Amino-2,3,5,6-tetramethylanilino)-N-methyl-[1-(2-phenyl-2-oxyethyl)-4-piperidinyl]acetamide]	25.0	84	–	Amount of induced Calbindine D28Kd (% vs. control) (Compound: 1 μM) [1]: 167 % vs. control
Cc1c(C)c(NCC(=O)N(C)C2CCN(CC(O)c3ccccc3)CC2)c(C)c(C)c1N (stereo not drawn) [Compound 112, 2-(4-Amino-2,3,5,6-tetramethylanilino)-N-[1-(2-hydroxy-2-phenylethyl)-4-piperidinyl]-N-methylacetamide]	20.7	–	76	–
Cc1c(C)c(NCC(=O)N(C)C2CCN(CC3CC3)CC2)c(C)c(C)c1N [Compound 113]	20.0	74	–	–
Cc1c(C)c(NCC(=O)N(C)C2CCN(CCN3CCOCC3)CC2)c(C)c(C)c1N [Compound 119, 2-(4-Amino-2,3,5,6-tetramethylanilino)-N-methyl-N-{1-[2-(4-morpholinyl)ethyl]-4-piperidinyl}acetamide]	–	–	115	Cerebral edema suppressing rate (%) [2, 5]: 21.6%
Cc1c(C)c(N(C)CC(=O)N(C)C2CCN(CCc3ccccc3)CC2)c(C)c(C)c1N [Compound 120, 2-(4-Amino-2,3,5,6-tetramethyl-N-methylanilino)-N-methyl-N-[1-(2-phenethyl)-4-piperidinyl]acetamide]	–	88	–	–
Cc1c(C)c(NC(C)C(=O)N(C)C2CCN(CC3CC3)CC2)c(C)c(C)c1N (stereo not drawn) [Compound 121, 2-(4-Amino-2,3,5,6-tetramethylanilino)-N-[1-(cyclopropylmethyl)-4-piperidinyl]-N-methylpropamide]	–	82	–	–
Cc1cc(C)c(NCC(=O)N(C)C2CCN(C/C=C/c3ccccc3)CC2)c(C)c1N [Compound 125, 2-(3-Amino-2,4,6-trimethylanilino)-N-methyl-N-[1-(3-phenyl-2-(E)-propenyl)-4-piperidinyl]acetamide]	–	–	52	–
Cc1cc(C)c(NCC(=O)N(C)C2CCN(CC(O)COc3ccccc3)CC2)c(C)c1N (stereo not drawn) [Compound 126, 2-(3-Amino-2,4,6-tirmethylanilino)-N-[1-(2-hydroxy-3-phenoxy)propyl-4-piperidinyl]-N-methylacetamide]	–	47	–	–
Cc1cc(C)c(NCC(=O)N(C)C2CCN(CC(=O)c3ccccc3)CC2)c(C)c1N [Compound 127, 2-(3-Amino-2,4,6-trimethylanilino)-N-methyl-N-[1-(2-phenyl-2-oxyethyl)-4-piperidinyl]acetamide]	–	72	–	–
Cc1cc(C)c(NCC(=O)N(C)C2CCN(CC3CC3)CC2)c(C)c1N [Compound 129, 2-(3-Amino-2,4,6-trimethylanilino)-N-[1-(cyclopropylmethyl)-4-piperidinyl]-N-methylacetamide]	–	–	64	–
Cc1cc(C)c(NCC(=O)N(C)C2CCN(S(=O)(=O)c3ccccc3)CC2)c(C)c1N [Compound 130, 2-(3-Amino-2,4,6-trimethylanilino)-N-methyl-N-[1-(phenylsulfonyl)-4-piperidinyl]acetamide]	–	–	60	–
Cc1cc(C)c(NCC(=O)N(C)C2CCN(Cc3ccccc3)CC2)c(C)c1N [Compound 131, 2-(3-Amino-2,4,6-trimethylanilino)-N-(1-benzyl-4-piperidinyl)-N-methylacetamide]	–	–	65	–
CCCCN1CCC(N(C)C(=O)CNc2c(C)cc(C)c(N)c2C)CC1 [Compound 132, 2-(3-Amino-2,4,6-trimethylanilino)-N-(1-butyl-4-piperidinyl)-N-methylacetamide]	–	–	60	Cerebral edema suppressing rate (%) [2, 5]: 30.4%
Cc1cc(C)c(NCC(=O)N(C)C2CCN(Cc3ccc4ccccc4c3)CC2)c(C)c1N [Compound 133, 2-(3-Amino-2,4,6-trimethylanilino)-N-methyl-N-[1-(2-naphthyl)methyl-4-piperidinyl]acetamide]	–	–	101	–
Cc1cc(C)c(NCC(=O)N(C)C2CCN(C(=O)c3cccc(C(F)(F)F)c3)CC2)c(C)c1N [Compound 134, 2-(3-Amino-2,4,6-trimethylanilino)-N-methyl-N-[1-(3-trifluoromethylbenzoyl)-4-piperidinyl]acetamide]	35.0	–	79	Cerebral edema suppressing rate (%) [2, 5]: 27.9%
Cc1cc(C)c(N(C)C)c(C)c1NCC(=O)N(C)C1CCN(C(=O)c2ccccc2)CC1 [Compound 135, N-(1-benzoyl-4-piperidinyl)-2-(3-dimethylamino-2,4,6-trimethylanilino)-N-methylacetamide]	–	–	76	–
CN(C(=O)CNc1cc(Cl)c(N)cc1Cl)C1CCN(CCc2ccccc2)CC1 [Compound 138, 2-(4-Amino-2,5-dichloroanilino)-N-methyl-N-[1-(2-phenethyl)-4-piperidinyl]acetamide]	–	42	–	–
CN(C(=O)CNc1c(Cl)cc(N)cc1Cl)C1CCN(CC(=O)Nc2ccccc2)CC1 [Compound 139, 2-(4-Amino-2,6-dichloroanilino)-N-[1-(2-anilino-2-oxyethyl)-4-piperidinyl]-N-methylacetamide]	–	53	–	–
